The values below come from US9198855B2, “Veterinary dermatologic composition” (Dermaconcept JMC, priority 2001, dated 2015).

Experiment [1] relates to Staphylococcus Intermedius. Nature of the experiment: Multiplication of Staphylococcus Intermedius cultures, doses 0-100 ppm in usual culture environment without solubilising agent. To be noted: for concentration completely inhibiting multiplication of Staphylococcus Intermedius cultures: complete inhibition; for concentration partly inhibiting multiplication of Staphylococcus Intermedius cultures: partial inhibition. It counts as cell-based. How it is done:
(§1) The minimum inhibitory concentration in case of Malassezia pachyadermatis was 25 ppm. Experiments were carried out using doses of 0, 5, 10, 25, 50 and 100 ppm of phytosphingosin and its hydrochloric acid salt on Staphylococcus Intermedius in usual culture environment without solubilising agent.

The test system of a further experiment is Candida albicans. Particulars: inflammated, depilated guinea pig skin; cited from earlier work.
The next experiment deals with Staphylococcus aureus. Particulars: inflammated, depilated guinea pig skin; cited from earlier work.
Experiment [2] relates to Malassezia pachyadermatis. Put plainly: In-vitro mycological study, minimum inhibitory concentration. Type of experiment: cell-based, Malassezia pachydermatis. The protocol: as §1
However the effect is not limited to cats and dogs but extends to other furry animals, such as horses, rabbits, […]

Converted amounts (≈) assume the structure as drawn.

For the compound `CCCCCCCCCCCCCC[C@@H](O)[C@@H](O)[C@@H](N)CO.Cl` [phytosphingosin hydrochloric acid salt, Phytosphingosin hydrochloric acid], in experiment [1], the “concentration completely inhibiting multiplication of Staphylococcus Intermedius cultures” value turned out to be 10 ppm and the “concentration partly inhibiting multiplication of Staphylococcus Intermedius cultures” value is 5 ppm.
`CCCCCCCCCCCCCCC[C@@H](O)[C@@H](N)CO` [sphinganin]: in the experiment on Candida albicans, the “activity against Candida albicans” value is recorded as “effective”. For the same compound, the “activity against Staphylococcus aureus” value with Staphylococcus aureus is listed as “effective”.
With `CCCCCCCCCCCCCC[C@@H](O)[C@@H](O)[C@@H](N)CO` [phytosphingosin], in experiment [1], the “concentration completely inhibiting multiplication of Staphylococcus Intermedius cultures” value was 10 ppm and the “concentration partly inhibiting multiplication of Staphylococcus Intermedius cultures” value was 5 ppm. The MIC in experiment [2] (Malassezia pachyadermatis) amounted to 25 µg/mL (≈ 78.7 µM). In experiment [2] (in-vitro mycological studies), the “anti-fungal action against Malassezia pachydermatis” value is given as “anti-fungal action”.
For `CCCCCCCCCCCCC/C=C/[C@@H](O)[C@@H](N)CO` [Sphingosin, sphingosin], in the experiment with Candida albicans, the “activity against Candida albicans” value was “little effect”. For the same compound, the “activity against Staphylococcus aureus” value with Staphylococcus aureus is on record as “little effect”.

In general, MIC refers to the lowest concentration found to suppress growth. A higher MIC goes with a need for much substance.
